Experimental data from patent US10322114B2 (Above and Beyond NB LLC, priority 2017, dated 2019).

[1] = oral 1.3 mg/kg BID 14 days versus IT 0.25 mg/hour 5 days, higher in oral

Excerpt: Animals were then sacrificed and a necropsy was immediately performed.
After stopping the 5-day treatment, animals were sacrificed and a necropsy was immediately performed. […] One hour after stopping the 14-day treatment, animals were sacrificed and a necropsy was immediately performed.
Animals were then sacrificed and a necropsy was immediately performed. […] Animals were then sacrificed and a necropsy was immediately performed.

riluzole accumulation in the spinal cord, IT-treated compared to oral-treated dogs (IT 0.25 mg/hour 5 days versus oral 1.3 mg/kg BID 14 days, higher in IT): approximately 4 fold | riluzole level in CSF, oral-treated compared to IT-treated dogs (oral 1.3 mg/kg BID 14 days versus IT 0.25 mg/hour 5 days): similar | riluzole level in plasma, oral-treated compared to IT-treated dogs [1]: approximately 20 fold | riluzole level in urine, oral-treated compared to IT-treated dogs [1]: approximately 3 fold
SMILES: Nc1nc2ccc(OC(F)(F)F)cc2s1 [Riluzole, 2-Amino-6-(trifluoromethoxy)benzothiazole]
